The values that follow come from PubChem BioAssay AID488890 (Southern Research Specialized Biocontainment Screening …, 2010).

pIC50: −log10 of the molar value. Inconclusive results are not listed. The source made the active and inactive calls. How the calls were made is not given here.

The assay relates to Mycobacterium tuberculosis non-replicating, growth inhibition. Briefly: growth inhibition of non-replicating M. tuberculosis (AID 488890).
On to `Cc1ccnc(NS(=O)(=O)c2ccc(NC(=O)c3ccc([N+](=O)[O-])s3)cc2)n1`, for which the pIC50 was 5.08.

Take `Cc1noc(C)c1COc1ccc(C(=O)Nc2ccccn2)cc1`: the IC50 is 24.6 µM (inactive). The same measure, in the same setting: under `COc1cccc(-c2nnc(NC(=O)c3cccc(F)c3)o2)c1` stands 11.1 µM (inactive). Consider `CCOC(=O)COc1ccc(C2CC(C)=NN2c2ccccc2)cc1` (stereo not given), for which the pIC50 is 5.59. For the compound `O=C(N/N=C1\CCCc2c1[nH]c1ccc(Cl)cc21)c1ccncc1`, the pIC50 was 5.75. Regarding `Nc1ccccc1C(=O)NNC1=C(C(=O)C(F)(F)F)CCC1`, the IC50 is 14.7 µM (inactive). `O=C1NC(=O)N(Cc2ccco2)C(=O)/C1=C\c1cccn1CCOc1ccc(Cl)cc1`: the pIC50 was 5.13.

Take `Cc1ccc(C)c(NC(=O)c2cc([N+](=O)[O-])cc([N+](=O)[O-])c2)c1`: the IC50 is 28.3 µM (inactive).

With `COc1cc2c(cc1OC)CN(CCC(=O)c1ccc(Br)cc1)CC2`, the pIC50 was 5.22.

For `O=C(N/N=C/c1cccc2cccnc12)[C@H]1C[C@@H]1c1ccccc1`, the IC50 is 13.1 µM (inactive). As to `CC(C)C(=O)N1CCN(c2ccc(NC(=O)c3ccc([N+](=O)[O-])o3)cc2)CC1`, the pIC50 is 5.91.

As to `Oc1ccc(Br)cc1-c1ccn[nH]1`, the pIC50 was 5.77. For `COc1ccc(C(C)=O)cc1COC(=O)c1ccc2ccccc2n1`, the pIC50 was 5.36. On the same count and under the same terms, the result for `O=C(N/N=C\c1ccc([N+](=O)[O-])s1)C1COc2ccccc2O1` (stereo not given) reads 5.31. Regarding `O=C(Nc1nnc(C2CC2)o1)c1ccc(S(=O)(=O)N2CCCCC2)cc1`, the IC50 is 29.8 µM (inactive).

In the case of `COC(=O)CCSCc1cn2cc(Cl)ccc2n1`, the IC50 was 32 µM (inactive). The same measure, in the same setting: under `COc1ccc(OCCOC(=O)CCS(=O)(=O)c2ccc(C)cc2)cc1` stands 24.1 µM (inactive). Regarding `COc1ccc(C(=O)N/N=C(\C)c2ccccn2)cc1OC`, the pIC50 was 5.31. With `CC(C)(C)c1ccccc1OCCOCCN1CCCCCC1`, the IC50 is 16.2 µM (inactive).

As to `COCCNC(=O)c1cc2cc(Cl)cc(Cl)c2oc1=O`, the pIC50 was 5.44.

Take `O=C(OCc1cccc([N+](=O)[O-])c1)c1ccc2ccccc2n1`: the pIC50 was 5.14. Still for that read-out and setting: under `O=C(O)COc1ccc2occ(C(=O)c3ccccc3)c2c1` stands 5.19. For the compound `CC(=O)N1N=C(c2ccccc2)OC1c1ccc([N+](=O)[O-])s1` (stereo not given), the IC50 is 13.4 µM (inactive).

Turning to `CC(C)Cn1c(N)c(C(=O)COC(=O)c2cnc(Cl)c(Cl)c2)c(=O)n(C)c1=O`, the IC50 is 12 µM (inactive). In the case of `OCC#CCSc1nnc(-c2ccc(Br)cc2)o1`, the negative-log IC50 (pIC50) is 6.48. Consider `Cc1ccc2nc(N(CCCN(C)C)C(=O)c3ccc4c(c3)CCCC4)sc2c1`, for which the IC50 is 14.5 µM (inactive). As to `CCOC(=O)CC(=O)Nc1ccc(C(=O)OCC)cc1`, the pIC50 is 5.28. Turning to `COC(=O)COc1cccc(NC(=O)c2cccc(C)c2)c1`, the pIC50 was 5.03. `O=C(Nc1nc2ccccc2[nH]1)c1ccc(F)cc1`: the IC50 was 13 µM (inactive). For the compound `CCOC(=O)COc1ccc(/C=C2\NC(=S)N(CC)C2=O)cc1`, the pIC50 was 5.15. Consider `CSC1=NSC2=NC(=O)/C(=C\c3cccs3)C(=N)N12`, for which the pIC50 was 5.35. Take `CC(=O)c1cccc(NC(=O)C2COc3ccccc3O2)c1` (stereo not given): the IC50 is 24 µM (inactive).

`Cc1ccc(C2=N/C(=C\c3cccnc3)C(=O)O2)cc1`: the pIC50 is 5.18. Consider `CCCCOc1ccc(NC(=O)CN2CCN(Cc3ccccc3)CC2)cc1`, for which the IC50 was 25.6 µM (inactive). For `CC(Cc1cccs1)NC(=O)c1cccc(Cl)c1` (stereo not given), the pIC50 was 5.09.

As to `CCCC(NCC(O)COc1ccc(-c2ccccc2)cc1)c1ccccc1` (stereo not given), the IC50 was 10.7 µM (inactive). Still for that read-out and setting: the result for `Cc1cccc(OCCN2CSC(=S)N(C)C2)c1` reads 16.4 µM (inactive). Consider `COC(=O)COc1ccc2c(=O)c(Oc3ccccc3)c(C)oc2c1`, for which the pIC50 is 5.77. Take `NC1=NC[C@H](Cc2ccccc2)N1CCCCC1CCCCC1`: the pIC50 was 5.13. On the same count and under the same terms, under `CC1(C)C[C@H]2C=C(C=O)[C@]3(C=O)C[C@]3(C)[C@H]2C1` stands 5.53; under `CCOc1cccc(/C=N/NC(=O)c2ccc3c(c2)OCCO3)c1O`, 5.95. As for `COc1ccc(/C=C2\Sc3ccc(C(=O)NCCN4CCCCCC4)cc3N(C)C2=O)cc1`, the IC50 was 12.7 µM (inactive). As to `CCCCC1CCC(C(=O)Nc2ccc(S(=O)(=O)Nc3nccs3)cc2)CC1` (stereo not given), the pIC50 is 5.11. With `O=C(NNC(=O)c1ncc(Cl)c(Cl)c1Cl)c1ccc(F)cc1`, the IC50 is 15.1 µM (inactive). As for `COc1ccc2c3c(cccc13)OCC2=O`, the IC50 was 25.9 µM (inactive). Take `O=C(N/N=C/c1cccc([N+](=O)[O-])c1O)c1cccs1`: the pIC50 is 5.63. On the same count and under the same terms, under `O=C(N/N=C/c1ccc(OC(=O)c2cccs2)cc1)c1ccccn1` stands 5.53. Take `CCCCNS(=O)(=O)c1ccc(OCC(=O)OC)cc1`: the IC50 is 15.6 µM (inactive).

With `CCc1ccc(N2NC(=O)/C(=C/C=C/c3ccco3)C2=O)cc1`, the pIC50 is 5.44. As to `O=C(NNc1c(F)c(F)cc(F)c1F)c1cc2ccccc2oc1=O`, the IC50 was 27.5 µM (inactive). Regarding `CC(NC(=O)OCc1ccccc1)c1ccccc1` (stereo not given), the pIC50 is 6.09. Still for that read-out and setting: the result for `CCS(=O)(=O)c1ncc(Cl)c(C(=O)Nc2ccc(S(=O)(=O)N3CCC(C)CC3)cc2)n1` reads 5.01; that for `COc1cc2c(cc1OC)CN(C(=O)c1ccc([N+](=O)[O-])o1)CC2`, 5.89; that for `O=C(c1ccc([N+](=O)[O-])o1)N1CCN(c2nc3ccc(F)cc3s2)CC1`, more than 7.00. On to `Cc1ccc2nc(CCc3nc4ccc(C)cc4[nH]3)[nH]c2c1`, for which the IC50 is 17.1 µM (inactive). On to `O=C(Nc1nnc(C2COc3ccccc3O2)o1)c1ccc(F)cc1` (stereo not given), for which the pIC50 is 5.15. Turning to `CN(C)CCCNc1cc(C(C)(C)C)nc2c(-c3ccccc3)cnn12`, the IC50 was 18.6 µM (inactive).

With `COC(=O)c1ccc(Sc2nnnn2-c2ccccc2)c([N+](=O)[O-])c1`, the pIC50 was 5.11. Take `Cc1ccc(NC(=O)C2COc3ccccc3O2)nc1` (stereo not given): the pIC50 was 5.20. Same read-out and setting: the result for `CN1/C(=C\C(=O)COC(=O)c2ccc([N+](=O)[O-])o2)C(C)(C)c2ccccc21` reads 5.44; that for `CCCCCn1c(=O)c2ccccc2n2c(CCl)nnc12`, 6.14; that for `CCCCCCn1c(=O)c(C(=O)Nc2nnc(C)s2)c(O)c2ccccc21`, 5.37. On the same count and under the same terms, under `Cc1ccc(N/N=C2\CS(=O)(=O)N(C)c3ccsc32)cc1` stands 6.51; under `O=C1CCCCC1Sc1nnc(-c2ccc3c(c2)OCO3)o1` (stereo not given), 5.74; under `c1ccc(-c2noc(CC3CCCCC3)n2)nc1`, 5.93. As for `O=C(Oc1ccc(F)cc1)c1ccc2c(=O)n3c(nc2c1)CCC3`, the pIC50 is 5.60. As for `CCOC(=O)c1c(C)nc2cc(C)ccn12`, the pIC50 is 5.23. The same measure, in the same setting: the result for `O=C1c2cc([N+](=O)[O-])cc3cc([N+](=O)[O-])cc(c23)C(=O)N1c1ccccn1` reads 5.46. On to `CC(=O)c1c(C)n(C)c2ccc(OC(=O)c3ccco3)cc12`, for which the IC50 was 10.3 µM (inactive). As to `COC(=O)c1cc(-c2ccc(OC)cc2)on1`, the pIC50 is 5.81.

Take `Cc1[nH]c2ccccc2c1C(=O)C(C)OC(=O)c1ccc([N+](=O)[O-])o1` (stereo not given): the pIC50 is 5.97. On the same count and under the same terms, the result for `O=C(NCc1cccs1)c1ccc(Br)o1` reads 5.47. For the compound `O=C(c1ccc([N+](=O)[O-])s1)N1CCN(c2cccc(Cl)c2)CC1`, the pIC50 is 6.42. Consider `CCOC(=O)c1ccc(NC(=O)CCSCCc2ccccn2)cc1`, for which the IC50 is 23.4 µM (inactive). As to `O=C(Nc1ccccc1C(=O)Nc1nnc(C(F)(F)F)s1)c1ccccc1`, the pIC50 is 5.90.

As for `O=C(Nc1nnc(C2=COCCO2)o1)c1cccc(C(F)(F)F)c1`, the IC50 was 17.7 µM (inactive). Turning to `O=C(NNc1nc2cc3c(cc2s1)OCCO3)c1ccccc1`, the IC50 was 23.5 µM (inactive). Consider `Cc1nc([N+](=O)[O-])c(Br)n1CC(=O)c1ccc(Cl)cc1`, for which the pIC50 is 5.24. As to `Cc1cc(C(=O)N/N=C/c2ccc([N+](=O)[O-])s2)n[nH]1`, the pIC50 is 5.48. On to `Cn1c(O)c(C(=Nc2ccccc2)SCc2ccccc2Cl)c(=O)n(C)c1=O`, for which the pIC50 is 5.08. On the same count and under the same terms, the result for `COc1cccc(/C=N/NC(=O)c2ccoc2C)c1O` reads 5.71; that for `COc1ccc(-c2cc(C(F)(F)F)nc(S(C)(=O)=O)n2)cc1`, 5.54. Same read-out and setting: under `O=C(N/N=C/c1ccc([N+](=O)[O-])s1)c1ccccc1` stands 5.26. As to `O=C(CNC1CCCC1)Nc1ccc(N2CCCCCC2)cc1`, the IC50 was 10.7 µM (inactive). The same measure, in the same setting: under `Cc1ccc(Sc2ncccc2N)cc1` stands 41.3 µM (inactive); under `CCOc1ccc(-c2nnc(NC(=O)CCCOc3cccc(C)c3)o2)cc1`, 15 µM (inactive). Still for that read-out and setting: the result for `Nc1nc2ccccc2n1C(=O)c1ccc(F)cc1` reads 13.2 µM (inactive). Take `CN1CCN(c2cc3c(cc2F)c(=O)c(C(=O)O)cn3CCF)CC1`: the pIC50 is 5.12. On the same count and under the same terms, under `COCCn1c(C)cc(C(=O)COC(=O)c2ccc([N+](=O)[O-])o2)c1C` stands 5.55.

For `CC(CN1CCOCC1)OC(=O)c1ccc2c(c1)OCCO2` (stereo not given), the IC50 was 33.5 µM (inactive). Same read-out and setting: under `CCCOc1ccc(N2CC(C(=O)Nc3ccccc3F)CC2=O)cc1` (stereo not given) stands 15.8 µM (inactive); under `CCOC(=O)Cc1csc(NC(=O)COc2ccc3c(c2)CCC3)n1`, 13.5 µM (inactive). The same measure, in the same setting: the result for `Clc1ccc2c(N3CCCC3)ccnc2c1` reads 16.4 µM (inactive); that for `Cc1ccccc1C1=N/C(=C/c2cccnc2)C(=O)O1`, 19.9 µM (inactive). As for `Cc1ccc(-c2nnc(-c3cccs3)o2)cc1`, the pIC50 is 5.70. On the same count and under the same terms, the result for `CCOc1ccc(Nc2cc(C)nc(-n3nc(C)cc3C)n2)cc1` reads 5.48. As to `CCOC(=O)CCSc1n[nH]c(=S)s1`, the IC50 is 11.7 µM (inactive). As for `Cc1ccc(NC(=O)CNc2ccc(OC(C)C)cc2)cc1`, the pIC50 was 5.39.

For the compound `Cc1cc(C)n2nc(N)c(N=Nc3ccccc3)c2n1`, the pIC50 is 5.23.

For the compound `COCCSc1nnc(NC(=O)CCS(=O)(=O)Cc2ccccc2)s1`, the pIC50 was 5.29.
